For assay [1], the system named is HCT116 ARID1A+/+ and ARID1A−/− cells. Description: γH2AX western blot. The settings on record: VX-970 0.5 uM; ARID1A−/− vs ARID1A+/+. Format: cell-based, human. As for the experimental part: (§1) FIG. 5. ATRi effect on cell cycle progression, chromosomal instability, DNA damage and apoptosis. A. Barchart illustrating G2/M fraction in HCT116 ARID1A^+/+ and ARID1A^−/− cells synchronized in G1/early S phase by double thymidine block and released into fresh media containing DMSO or VX-970 (500 nM). The percentage of cells in G2/M was measured by FACS following PI staining. […] Cells were stained with DAPI. A minimum of 50 anaphases were scored in 3 biological replicate experiments. *p=0.023, Student's t-test. C. Bar chart illustrating frequency of anaphase bridges in TOV21G cells exposed to VX-970 (0.5 uM) or DMSO for 8 hours prior to fixation. Experiment performed as for (B). p=0.006 Student's t-test. D. Mitotic spread images from HCT116 ARID1A^+/+ and ARID1A^−/− cells following exposure to either DMSO or VX-970 (1 uM). Scale bar represents 20 um. E. Bar chart illustrating extent of chromosomal abnormalities in HCT116 ARID1A^+/+ and ARID1A^−/− cells exposed to VX-970 (1 uM). *p<0.05, Student's t-test. F. Western blot illustrating γH2AX in HCT116 ARID1A^+/+ and ARID1A^−/− cells exposed to VX-970 (0.5 uM) for the indicated time prior to cell lyses. G. Bar chart illustrating apoptotic fraction in cells exposed to increasing concentrations of VX-970 for 24 hours. Experiment as per FIG. 3I. H. Western blot illustrating PARP cleavage in HCT116 ARID1A^+/+ and ARID1A^−/− cells exposed to VX-970. […]
(In western blotting, separated proteins are transferred to a membrane and probed.)

In assay [2] the test system is HCT116 ARID1A+/+ xenografts. Description: In vivo efficacy, HCT116 ARID1A+/+ subcutaneous xenografts. More on the design: species or system mice. On the procedure: FIG. 3. In vivo ARID1A/ATR synthetic lethality. A. Schematic of VX-970 therapy experiment in mice bearing established HCT116 ARID1A^+/+ and ARID1A^−/− xenografts. Cells were inoculated subcutaneously into nude mice and tumors allowed to establish for 10 days. Mice were then randomized to treatment regimens of either VX-970 (60 mg/kg, 4× weekly by oral gavage) or vehicle. Mice were then treated for a subsequent 40 days. Tumor volume was monitored twice weekly. B. Relative tumor volume plot from (A) showing efficacy of VX-970 and selectivity for ARID1A^−/− xenografts* p=0.024, ANOVA. C. Schematic of tumor incidence experiment in mice with non-established HCT116 ARID1A^+/+ and ARID1A^−/− xenografts. Mice were inoculated with cells as before, randomized and then treated with VX-970. VX-970 or vehicle treatment was initiated on the day of cell implantation. Tumor volume was monitored twice weekly and overall tumour incidence was assessed 40 days later. D. Bar chart of incidence 40 days after implantation of HCT116 ARID1A^+/+ and ARID1A^−/− cells. Each group contained 15 animals and fractions above bars indicate the number of animals in which a measurable xenograft formed. *p=0.027 Fisher's exact test. E and F. Tumor growth in experiment described in (C). *p=0.015 ANOVA. G. VX-970 dose response curves from TOV21G (ARID1A mutant) and RMG1 (ARID1A wildtype) cells. Cells were exposed to VX-970 for 5 days. […] PARP-1, cleaved PARP-1 (85 kDa fragment) and tubulin were detected by western blot. […] Caspase3/7 activity was assessed using Caspase-Glo and total cellular viability was estimated using CellTitre-Glo. Luminescence ratios for Caspase-Glo (i.e. apoptotic cells) and CellTitre-Glo (ie viable cells) was determined for each dose and normalized to DMSO treated samples. *Student's t-test, p<0.05. […]
In vivo efficacy studies were performed using HCT116 […], HCT116 ARID1A^−/− and TOV21G cells injected subcutaneously in the flank of female CD-1 Nude mice. […] Tumours were measured manually by calliper trice weekly and animals were sacrificed when tumours reached >15 mm in any direction.

The test system of assay [3] is HCT116 ARID1A+/+ and ARID1A−/− cells. Description: Cell cycle analysis of synchronized cells (G2/M fraction, FACS). Type of assay: cell-based, human. Particulars: double thymidine block, release into VX-970 (500 nM). As for the experimental part: as §1, with “t-test.” for “t-test. F. Western blot illustrating γH2AX in HCT116 ARID1A^+/+ and ARID1A^−/− cells exposed to VX-970 (0.5 uM) for the indicated time prior to cell lyses. G. Bar chart illustrating apoptotic fraction in cells exposed to increasing concentrations of VX-970 for 24 hours. Experiment as per FIG. 3I. H. Western blot illustrating PARP cleavage in HCT116 ARID1A^+/+ and ARID1A^−/− cells exposed to VX-970.”
Cells were plated at a density of 2×10^5 cells per well of a six-well plate and incubated for 24 hours after which ATRi or 0.1% DMSO was added for the indicated period of time. […] Samples were analyzed on a BD LSR II flow cytometer using BD FACSDiva software (BD Biosciences). […]

The test system of assay [4] is synovial sarcoma PDX SA13412. Description: Synovial sarcoma patient-derived xenograft treatment. Type of assay: in vivo, mice.

This is an account of results in US12233060B2, “Inhibitors of Ataxia-Telangiectasia Mutated and Rad3-related protein kinase (ATR) for use in methods of treating cancer” (THE INSTITUTE OF CANCER RESEARCH: ROYAL CANCER HOSPITAL, priority 2016, dated 2025).

On to `CNCc1ccc(-c2cc(-c3nc(-c4ccc(S(=O)(=O)C(C)C)cc4)cnc3N)on2)cc1` [VX-970, 5-[4-(Isopropylsulfonyl)phenyl]-3-(3-{4-[(methylamino)methyl]phenyl}-1,2-oxazol-5-yl)-2-pyrazinamine], for which the γH2AX induction entry in assay [1] is listed as “more pronounced”. Moreover, the “growth of established ARID1A+/+ xenografts” value in assay [2] (60 mg/kg, 4x weekly oral gavage, 40 days) is reported as “no effect”. The “growth of ARID1A+/+ xenografts under continued treatment” value in assay [2] (non-established xenograft experiment, p=0.63 ANOVA) is recorded as “did not impair”. The “incidence of ARID1A+/+ xenografts” value in assay [2] (treatment from day of cell implantation, incidence 40 days later, 15 animals per group) is listed as 80%. Moreover, the “G2/M delay in ARID1A−/− cells” value in assay [3] was “abrogated the G2/M delay”. Besides, in assay [4] (established PDX, ANOVA p<0.0001), the “tumour growth in PDX SA13412” value is “inhibition of tumour growth”. Further, the “survival time of PDX-bearing mice” value in assay [4] (log rank Mantel p=0.026) is given as “increase in survival time”.
